“Also recorded” adds a separate entry of the source.
How the values were obtained:
[1] = tested on: hPDL1 mRNA (human PDL1 mRNA); assay: inhibitory effect of shPDL1 on hPDL1 mRNA, Real-time PCR; type: cell-based; conditions: U251 and H460 cells, 24 h and 48 h after transfection, compared to control shRNA
Description: U251 and H460 cells were seeded in 12-well plates at 2×10^5 cells per well, respectively, 12 hours in advance. U251 and H460 cells in each well were transfected with 1.6 μg shRNA expression vector DNA in a ratio to 4 μl lipofectamin 2000. Two cell samples were taken over 24 hours and 48 hours, respectively. After the total RNA was extracted and reverse transcription was performed, the expression level of human PDL1 mRNA in cells was detected by Real-time PCR with the mRNA level of GAPDH gene as a control.

[2] = tested on: human PDL1 protein fused with 3×FLAG tag; assay: inhibitory effect of shPDL1 on over-expressed hPDL1 protein in 293T cells, Western blot; type: cell-based; conditions: 293T cells co-transfected 1:1 with pcDNA3.3-hPDL1-3×FLAG, 48 hours
Description: 293T cells were transiently transfected with plasmids pSGU6/GFP/Neo-shPDL1-NC, pSGU6/GFP/Neo-shPDL1-1, pSGU6/GFP/Neo-shPDL1-2 and pSGU6/GFP/Neo-shPDL1-3 with pcDNA3.3-hPDL1-3×FLAG at an equimolar ratio (1:1), respectively, wherein plasmid pcDNA3.3-hPDL1-3×FLAG expresses the human PDL1 protein fused with 3×FLAG tag. Cell samples were collected after 48 hours, and Western blot analysis was performed after cell lysis.

Substance	inhibitory effect on hPDL1 mRNA [1]	over-expressed hPDL1 protein [2]
shPDL1-#1 (GGGAAATGGAGGATAAGAACATTCAAGAGATGTTCTTATCCTCCATTTCCCTT; expressed or natural sequence)	inhibitory effect; also recorded: most significant inhibitory effect	significantly reduce
shPDL1-#2: shRNA (coding sequence SEQ ID NO. 19) targeting region 430-452 of human PDL1 mRNA (DNA GGATCCAGTCACCTCTGAACATTCAAGAGATGTTCAGAGGTGACTGGATCCTT)	inhibitory effect	
shPDL1-#3: shRNA (coding sequence SEQ ID NO. 22) targeting region 589-611 of human PDL1 mRNA (DNA GAGAATCAACACAACAACTAATTCAAGAGATTAGTTGTTGTGTTGATTCTCTT)	inhibitory effect	

Reference: patent US12653851B2, “Isolated recombinant oncolytic adenoviruses, pharmaceutical compositions, and uses thereof for drugs for treatment of tumors and/or cancers” (HANGZHOU CONVERD CO., LTD., priority 2017, dated 2026)
